Patent publication US20230312556A1, “ARYLAMIDE COMPOUND, PHARMACEUTICAL COMPOSITION COMPRISING SAME, AND PREPARATION METHOD THEREFOR AND USE THEREOF” (SICHUAN KELUN-BIOTECH BIOPHARMACEUTICAL CO., LTD., priority 2020, published 2023)

Legend:
[1] = system: human melanoma cell A375 (BRAF-V600E mutation); assay: Cancer cell proliferation inhibition assay, A375; assay type: cell-based; conditions: A-375, 72 h incubation, Cell Titer Glo
Excerpt: (§1) The inhibitory effects of the compounds of the present invention on cancer cell proliferation were further evaluated by testing the effects of the compounds of the present invention on the growth of cancer cells.
(§2) In this example, human melanoma cell A375 (BRAF-V600E mutation, purchased from the Cell Bank of the Chinese Academy of Sciences) and human hepatocellular carcinoma cell HepG2 (NRAS-Q61K mutation, purchased from ATCC, USA) were employed.
(§3) In this example, the test compounds at various concentrations (100000 nM, 30000 nM, 10000 nM, 3000 nM, 1000 nM, 300 nM, 100 nM, 30 nM, 10 nM) were added to the above cells, and the incubation was performed for 72 h. The inhibitory activity of the compounds was tested by measuring ATP in living cells using the Cell Titer Glo Kit (Promega).
(§4) The IC50 values of the compounds of the present invention for each tested cell were determined, and the test results are as follows: […]

[2] = system: human hepatocellular carcinoma cell HepG2 (NRAS-Q61K mutation); assay: Cancer cell proliferation inhibition assay, HepG2; assay type: cell-based; conditions: 72 h incubation, Cell Titer Glo
Excerpt: as §1, §2, §3, §4

[3] = biological target: wild-type BRAF enzyme (Homo sapiens (Human), UniProt P15056); assay: RAF inhibition assay (TB-PMAP2K1 kit), wild-type BRAF; assay type: biochemical; conditions: FLUORESCEIN-MAP2K1 substrate, 60 min reaction
Procedure: Assay protocol: the inhibitory effects of the compounds of the present invention on the wild-type BRAF enzyme, mutant CRAF enzyme (RAF1 Y340D and Y341D) and mutant BRAF enzyme (BRAF-V600E) activity were determined according to the instructions of the TB-PMAP2K1 (PSER217/221) kit (ThermoFisher). Different RAF enzymes and substrates (FLUORESCEIN-MAP2K1) were pre-incubated with test compounds at various concentrations at room temperature for 15 min, and then the adenosine triphosphate (ATP) was added to initiate the reaction. After incubation at room temperature for 60 min, EDTA and Tb-labeled anti-pMAP2K1 [pS217/221] antibody solutions were added, and incubation was performed at room temperature for 60 min before the detection of the fluorescence values of the compounds in each group. With the vehicle group (DMSO) as the negative control and the buffer group (without RAF enzyme) as the blank control, the relative inhibitory activity percentage (i.e., the inhibition rate) of a compound at different concentrations was calculated according to the following formula:
Relative inhibitory activity percentage=1−(Compound group at various concentrations−blank control)/(negative control−blank control)*100%
The relative inhibitory activity percentages of the compounds at different concentrations were plotted against the compound concentrations, the curve was fitted according to a four-parameter model, and the IC50 value was calculated according to the following formula:
y=min+(max−min)/(1+(x/IC50)^(−Hillslope))
wherein y is the relative inhibitory activity percentage, max and min are respectively the maximum and minimum values of the fitted curve, x is the logarithm concentration of the compound, and Hillslope is the slope of the curve.

[4] = Pharmacokinetic test in Beagle dogs; assay type: in vivo
Procedure: The compounds were administered to male Beagle dogs by gavage (PO) to investigate the pharmacokinetic profile.
Compound 1 of the present invention and HM95573 were administered via PO; the administration dosage was 2.5 mg/kg, and the solvent was a 20% aqueous solution of hydroxypropyl-β-cyclodextrin. Blood samples were collected before the administration (0 h) and at 0.25, 0.5, 1, 2, 4, 6, 8, 24, 48, and 72 hours after the administration, and 1 mL blood was collected from the limbs vein and placed in a K2-EDTA anticoagulation tube. After centrifugation at 4000 rpm for 5 min (4° C.), the plasma was separated and stored at −80° C. for testing. The plasma samples were processed by precipitating proteins, and then subjected to LC-MS/MS analysis. The pharmacokinetic parameters were calculated using the WinNonlin 6.3 software and employing a non-compartmental model, and the results are shown in Table 7.

[5] = Pharmacokinetic test in Balb/c mice; assay type: in vivo
Procedure: The compounds were administered to female Balb/c mice by gavage (PO) to investigate the pharmacokinetic profile.
Compound 1 of the present invention and HM95573 (prepared according to Example 116 in CN104039798B) were administered via PO; the administration dosage was 10 mg/kg, and the administration vehicle was a 20% aqueous solution of hydroxypropyl-β-cyclodextrin. Blood samples were collected before the administration (0 h) and at 0.25, 0.5, 1, 2, 4, 6, 8, 24, 48, and 72 h after the administration; 50-70 μL of blood was drawn from the orbit and spotted on Whatman 903 card, which was air-dried at room temperature for testing. After the testing, the samples were placed in a sealed dry box and stored at −80° C. (DBS samples). The DBS samples were punched with a 6 mm punch, then 80 μL of 50% acetonitrile-water was added and shaken (800 rpm, 10 min), followed by sonication for 10 min, then 350 μL of acetonitrile containing internal standard was added and shaken (700 rpm, 10 min). After sonication for 10 min, the samples were centrifuged at 4000 rpm and 4° C. for 10 min, and the supernatant was collected for LC-MS/MS analysis. The pharmacokinetic parameters were calculated using the WinNonlin 6.3 software and employing a non-compartmental model, and the results are shown in Table 6.

[6] = dog, male Beagle dogs, PO, 2.5 mg/kg, plasma
[7] = mouse, whole blood (dried blood spots), female Balb/c mice, PO, 10 mg/kg, DBS samples
[8] = male Beagle dogs, PO, 2.5 mg/kg, plasma
[9] = female Balb/c mice, PO, 10 mg/kg, DBS samples

Sequence of wild-type BRAF enzyme (P15056 whole entry): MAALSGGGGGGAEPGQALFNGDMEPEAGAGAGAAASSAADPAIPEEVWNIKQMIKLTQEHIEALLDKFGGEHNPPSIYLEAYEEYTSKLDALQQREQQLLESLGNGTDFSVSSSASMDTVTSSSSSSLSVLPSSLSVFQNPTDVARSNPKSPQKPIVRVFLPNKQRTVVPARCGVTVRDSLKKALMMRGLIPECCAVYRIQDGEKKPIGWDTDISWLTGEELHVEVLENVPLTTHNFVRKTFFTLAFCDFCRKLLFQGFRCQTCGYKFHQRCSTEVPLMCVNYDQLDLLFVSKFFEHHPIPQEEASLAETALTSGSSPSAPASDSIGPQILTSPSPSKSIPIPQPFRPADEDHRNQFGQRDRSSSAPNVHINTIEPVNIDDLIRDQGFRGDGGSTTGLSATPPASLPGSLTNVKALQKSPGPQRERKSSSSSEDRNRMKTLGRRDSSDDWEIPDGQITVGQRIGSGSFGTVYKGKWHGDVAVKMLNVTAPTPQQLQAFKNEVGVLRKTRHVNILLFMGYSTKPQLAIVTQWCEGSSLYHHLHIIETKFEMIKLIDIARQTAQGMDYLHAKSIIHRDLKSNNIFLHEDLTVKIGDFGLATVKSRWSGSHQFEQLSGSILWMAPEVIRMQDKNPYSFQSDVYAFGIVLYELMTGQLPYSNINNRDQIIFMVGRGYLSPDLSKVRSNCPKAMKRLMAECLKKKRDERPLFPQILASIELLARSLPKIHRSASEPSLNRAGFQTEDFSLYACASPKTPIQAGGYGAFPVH

SMILES | IC50 [1] | IC50 [2] | IC50 [3] | other results
Cc1ccc2c(Nc3cccc(Cl)c3F)nccc2c1NC(=O)c1ccc(F)c2c(N)ncnc12 [Compound 93, 4-amino-N-(1-((3-chloro-2-fluorophenyl)amino)-6-methylisoquinolin-5-yl)-5-fluoroquinazoline-8-carboxamide] | 61.7 ± 3.6 nM | 62.9 ± 11.3 nM | 13.5 ± 1.02 nM | 
Cc1ccc2c(Nc3c(F)cc(F)cc3F)nccc2c1NC(=O)c1cccc2c(N)ncnc12 [Compound 94, 4-amino-N-(6-methyl-1-((2,4,6-trifluorophenyl)amino)isoquinolin-5-yl)quinazoline-8-carboxamide] | 58.8 ± 5.6 nM | 47.4 ± 6.5 nM | 10.3 ± 1 nM | 
Nc1ncnc2c(C(=O)Nc3c(F)ccc4c(Nc5cccc(Cl)c5F)nccc34)cccc12 [Compound 92, 4-amino-N-(1-((3-chloro-2-fluorophenyl)amino)-6-fluoroisoquinolin-5-yl)quinazoline-8-carboxamide] | 128 ± 8 nM | 49.8 ± 4.3 nM | 21.8 ± 3.89 nM | 
Cc1ccc2c(Nc3cc(F)c(F)cc3F)nccc2c1NC(=O)c1cccc2c(N)ncnc12 [Compound 90, 4-amino-N-(6-methyl-1-((2,4,5-trifluorophenyl)amino)isoquinolin-5-yl)quinazoline-8-carboxamide] | 74 ± 6.3 nM | 118 ± 12.6 nM | 26.5 ± 2.18 nM | 
Cc1ccc2c(Nc3cccc(Cl)c3F)nccc2c1NC(=O)c1cccc2c(N)ncnc12 [Compound 1, 4-amino-N-(1-((3-chloro-2-fluorophenyl)amino)-6-methylisoquinolin-5-yl)quinazoline-8-carboxamide] | 29.3 ± 2.3 nM | 71.3 ± 5.5 nM | 18.7 ± 2.71 nM | AUC(0-t) [4, 6]: 31000 ± 4240 ng·h/mL; half-life [4, 6]: 15.4 ± 4.1 h; Cmax ([4]; dog, male Beagle dogs, PO, 2.5 mg/kg, plasma, read-out: Cmax): 1800 ± 127 ng/mL; Tmax ([4]; dog, male Beagle dogs, PO, 2.5 mg/kg, plasma, read-out: Tmax): 1 h; Conclusion on pharmacokinetics in dogs ([4]; dogs after PO administration): Conclusion: Compound 1 of the present invention has a high maximum plasma concentration, high exposure, long half-life and good overall PK properties in dogs after PO administration.; Conclusion on pharmacokinetics in mice ([5]; mice after PO administration): Conclusion: compound 1 of the present invention has a high maximum plasma concentration and a high exposure in mice after PO administration.; AUC(0-t) [5, 7]: 172000 ± 18300 ng·h/mL; half-life [5, 7]: 8.33 ± 0.95 h; Cmax ([5]; mouse, whole blood (dried blood spots), female Balb/c mice, PO, 10 mg/kg, DBS samples, read-out: Cmax): 8240 ± 586 ng/mL; Tmax ([5]; mouse, whole blood (dried blood spots), female Balb/c mice, PO, 10 mg/kg, DBS samples, read-out: Tmax): 1.67 ± 0.58 h
Cc1ccc2c(Nc3ccc(F)cc3F)nccc2c1NC(=O)c1cc(F)cc2c(N)ncnc12 [Compound 85, 4-amino-N-(1-((2,4-difluorophenyl)amino)-6-methylisoquinolin-5-yl)-6-fluoroquinazoline-8-carboxamide] | 148 ± 3.8 nM | 40.1 ± 6.97 nM | 12.9 ± 0.9 nM | 
Cc1ccc2c(Nc3cccc(Cl)c3F)nccc2c1NC(=O)c1cc(F)cc2c(N)ncnc12 [Compound 46, 4-amino-N-(1-((3-chloro-2-fluorophenyl)amino)-6-methylisoquinolin-5-yl)-6-fluoroquinazoline-8-carboxamide] | 89.3 ± 5.2 nM | 74.4 ± 7.91 nM | 79.3 ± 19.5 nM | 
Cc1ccc2c(Nc3ccc(F)cc3F)nccc2c1NC(=O)c1cccc2c(N)ncnc12 [Compound 67, 4-amino-N-(1-((2,4-difluorophenyl)amino)-6-methylisoquinolin-5-yl)quinazoline-8-carboxamide] | 184 ± 16.9 nM | 56.7 ± 9.3 nM | 13.2 ± 1.67 nM | 
Cc1ccc2c(Nc3cc(Cl)ccc3F)nccc2c1NC(=O)c1cccc2c(N)ncnc12 [Compound 73, 4-amino-N-(1-((5-chloro-2-fluorophenyl)amino)-6-methylisoquinolin-5-yl)quinazoline-8-carboxamide] | 109 ± 22.8 nM | 59.6 ± 2.2 nM | 36.2 ± 16.5 nM | 
Cc1ccc2c(Nc3cccc(Cl)c3F)nccc2c1NC(=O)c1csc2c(N)ncnc12 [HM95573, reference compound] |  |  |  | AUClast [4, 8]: 13080 ± 6254 ng·h/mL; Cmax [4, 8]: 989 ± 411 ng/mL; T1/2 [4, 8]: 8.43 ± 1.76 h; Tmax [4, 8]: 1.33 ± 0.58 h; AUClast [5, 9]: 110760 ± 9636 ng·h/mL; Cmax [5, 9]: 4710 ± 806 ng/mL; T1/2 [5, 9]: 9.57 ± 0.58 h; Tmax [5, 9]: 1.67 ± 0.58 h
